This passage reports IC50, Kp and concentration results from patent publication US20240262819A1, “NOVEL COMPOUNDS HAVING INHIBITORY ACTIVITY AGAINST GLUCOSYLCERAMIDE SYNTHASE OR PHARMACEUTICALLY ACCEPTABLE SALT THEREOF, PROCESSES FOR PREPARING THE SAME, AND PHARMACEUTICAL COMPOSITIONS COMPRISING THE SAME” (YUHAN CORPORATION, priority 2021, published 2024).

The subject of data set [1] is GM1 production in Jurkat cells. Briefly: cells. The format is cell-based. To be noted: Homo sapiens, Jurkat, 72 h.
Data set [2] in a line: Evaluation of blood-brain barrier (BBB) permeability through oral administration. The format is in vivo, mice. The note with it: mouse, in vivo, mice, oral, 4 hr; for Kp at 4 h: read-out: Mean brain-plasma drug ratio at 4 hr. On the procedure:
The blood-brain barrier (BBB) permeability was evaluated in mice, with respect to the compounds according to the present invention and the control (ibiglustat). Each compound of the present invention and the control were suspended in 0.5% methyl cellulose containing 0.2% Tween 80 and then orally administered to mice at a dose of 10 or 30 mg/10 ml/kg. After the whole blood was collected from the heart of each mouse at the time of 4 hours after the administration, it was placed in a lithium heparin tube and immediately centrifuged to obtain the plasma. After the exsanguination was carried out through abdominal vena cava incision, the forebrain was taken by dissection of the head. Both of the forebrain and the plasma were stored in a −80° C. freezer until the analysis of drug concentrations therein. For the analysis of drug concentrations therein, the forebrain was immersed in distilled water and then homogenized with a homogenizer to obtain a homogenate. Each plasma and homogenate was treated with acetonitrile to precipitate proteins, vortexed for 15 seconds, and then centrifuged (12700 rpm, 10 min, 4° C.). The obtained supernatant was diluted with an 80% aqueous solution of acetonitrile containing 0.1% formic acid and then analyzed with an LC-MS/MS instrument. LC-MS/MS analysis was carried out with a reversed-phase column, using distilled water containing 0.1% formic acid and acetonitrile as mobile phases. Each eluted material was detected through a mass spectrometer to calculate the drug concentrations thereof. The brain-plasma drug ratio (B/P ratio) was calculated from the drug concentrations in each tissue to evaluate the blood-brain barrier (BBB) permeability.

Where [3] appears, read: dose 30 mg/kg, read-out: Mean drug concentrations in brain tissue at 4 hr.
The mark [4] stands for this setting: dose 30 mg/kg, read-out: Mean drug concentrations in plasma at 4 hr.

Where two headings read alike, the source gives them in different places.

For the molecule `COc1c(C)cc(-c2cc3c(cc2F)[C@H](NC(=O)O[C@@H]2CN4CCC2CC4)C(C)(C)C3)cc1C` [Example 63, (S)-quinuclidin-3-yl((R)-6-fluoro-5-(4-methoxy-3,5-dimethylphenyl)-2,2-dimethyl-2,3-dihydro-1H-inden-1-yl)carbamate], the 50% inhibitory concentration (IC50) in data set [1] was 20.6 nM. Also, the Kp at 4 h in data set [2] (dose 30 mg/kg) stood at 1.4. For the same molecule, the concentration at 4 h in data set [2] (setting [3]) was found to be 1360 ng/g; in data set [2] (setting [4]), 974 ng/mL.
Regarding `CCCOc1ccc(-c2cc3c(cc2F)[C@H](NC(=O)O[C@@H]2CN4CCC2CC4)C(C)(C)C3)cc1` [Example 69, (S)-quinuclidin-3-yl((R)-6-fluoro-2,2-dimethyl-5-(4-propoxyphenyl)-2,3-dihydro-1H-inden-1-yl)carbamate], inhibition in data set [1] was half-maximal at 1.1 nM (IC50). The Kp at 4 h in data set [2] (dose 30 mg/kg) was 9.84. The concentration at 4 h turned out to be 4140 ng/g in data set [2] (setting [3]) and 433 ng/mL in data set [2] (setting [4]).
On to `CC(C)Oc1ccc(-c2ccc3c(c2)CC(C)(C)[C@H]3NC(=O)O[C@@H]2CN3CCC2CC3)cc1Cl` [Example 11, (S)-quinuclidin-3-yl((R)-5-(3-chloro-4-isopropoxyphenyl)-2,2-dimethyl-2,3-dihydro-1H-inden-1-yl)carbamate], for which it took 23.4 nM to reach half-maximal inhibition in data set [1] (IC50). The Kp at 4 h in data set [2] (dose 10 mg/kg) was 9.12. Also, the concentration at 4 h in data set [2] (dose 10 mg/kg, read-out: Mean drug concentrations in brain tissue at 4 hr) came out at 2410 ng/g; in data set [2] (dose 10 mg/kg, read-out: Mean drug concentrations in plasma at 4 hr), 265 ng/mL.
`COc1ccc(-c2cc3c(cc2F)[C@H](NC(=O)O[C@@H]2CN4CCC2CC4)C(C)(C)C3)c(Cl)c1` [Example 103, (S)-quinuclidin-3-yl((R)-5-(2-chloro-4-methoxyphenyl)-6-fluoro-2,2-dimethyl-2,3-dihydro-1H-inden-1-yl)carbamate] registered a half-inhibitory concentration (IC50) in data set [1] of 5.6 nM. For the same molecule, the Kp at 4 h in data set [2] (dose 30 mg/kg) was found to be 2.76. The concentration at 4 h is 4680 ng/g in data set [2] (setting [3]) and 1700 ng/mL in data set [2] (setting [4]).
For `CC(C)Oc1ccc(-c2cc3c(cc2F)[C@H](NC(=O)O[C@@H]2CN4CCC2CC4)C(C)(C)C3)cc1` [Example 68, (S)-quinuclidin-3-yl((R)-6-fluoro-5-(4-isopropoxyphenyl)-2,2-dimethyl-2,3-dihydro-1H-inden-1-yl)carbamate], in that order: 1.54 nM, 9.77, 13500 ng/g and 1420 ng/mL.
In the same order, the values of `COc1ccc(-c2ccc3c(c2)CC(C)(C)[C@H]3NC(=O)O[C@@H]2CN3CCC2CC3)c(Cl)c1` [Example 43, (S)-quinuclidin-3-yl((R)-5-(2-chloro-4-methoxyphenyl)-2,2-dimethyl-2,3-dihydro-1H-inden-1-yl)carbamate] are 6.4 nM, 3.65, 5720 ng/g and 1560 ng/mL.
In the same order, the values of `Cc1cc(-c2cc3c(cc2F)[C@H](NC(=O)O[C@@H]2CN4CCC2CC4)C(C)(C)C3)cc(C)c1OC(C)C` [Example 65, (S)-quinuclidin-3-yl((R)-6-fluoro-5-(4-isopropoxy-3,5-dimethylphenyl)-2,2-dimethyl-2,3-dihydro-1H-inden-1-yl)carbamate] are 8.8 nM, 5.04, 4080 ng/g and 811 ng/mL.
In data set [1], `Cc1cc(-c2ccc3c(c2)CC(C)(C)[C@H]3NC(=O)O[C@@H]2CN3CCC2CC3)cc(C)c1OC(C)C` [Example 10, (S)-quinuclidin-3-yl((R)-5-(4-isopropoxy-3,5-dimethylphenyl)-2,2-dimethyl-2,3-dihydro-1H-inden-1-yl)carbamate] yielded an IC50 of 10.3 nM. Besides, the Kp at 4 h in data set [2] (dose 30 mg/kg) came out at 5.62. Besides, the results for the concentration at 4 h in data set [2] (setting [3]) and in data set [2] (setting [4]) were 6100 ng/g and 1090 ng/mL, respectively.
The molecule `CC(C)Cc1ccc(-c2cc3c(cc2F)[C@H](NC(=O)O[C@@H]2CN4CCC2CC4)C(C)(C)C3)cc1` [Example 62, (S)-quinuclidin-3-yl((R)-6-fluoro-5-(4-isobutylphenyl)-2,2-dimethyl-2,3-dihydro-1H-inden-1-yl)carbamate] displayed an IC50 in data set [1] of 3.4 nM. In addition, the Kp at 4 h in data set [2] (dose 30 mg/kg) was determined as 6.83. Moreover, the figures for the concentration at 4 h in data set [2] (setting [3]) and in data set [2] (setting [4]) were 2960 ng/g and 434 ng/mL, respectively.
